In US5364931A (Bayer Aktiengesellschaft, priority 1990, dated 1994) one finds IC50 data, which are given here for five molecules.

In one assay the target is T1, HIV protease (Human immunodeficiency virus type 1 group M subtype B, UniProt P04585).
T1 construct: purified HIV protease was incubated with synthetic peptide
The assay is described as follows: HIV-specific protease enzyme test (RP-HPLC), compounds of formula (I). As to conditions: purified HIV protease, synthetic Gag cleavage-site peptide, compounds of general formula (I). It is filed as biochemical. The procedure:
(§1) The results for the examples listed below were determined by the HIV test system described in the following literature reports [cf. Hansen, J., Billich, S., Schulze, T. Sukrow, S. and Molling, K. (1988), EMBO Journal, Vol. 7, No. 6, pages 1785-1791]: purified HIV protease was incubated with synthetic peptide which imitates a cleavage site in the Gag precursor protein and represents an in vivo cleavage site of the HIV protease. The resulting cleavage products of the synthetic peptide were analysed by means of reverse phase high performance liquid chromatography (RP-HPLC). The IC50 values given relate to the substance concentration which causes a 50% inhibition of protease activity under the abovementioned test conditions.

For a further assay, the target named is HIV-I protease (Human immunodeficiency virus type 1 group M subtype B, UniProt P04585). As to conditions: read-out: IC50 (inactivation of HIV-I protease); cited from earlier work.
The next assay concerns the target T2, HIV-1 protease (Human immunodeficiency virus type 1 group M subtype B, UniProt P04585).
T2 construct: purified HIV protease was incubated with synthetic peptide
The assay is described as follows: HIV-specific protease enzyme test (RP-HPLC), HIV-1. In kind it is biochemical. As for the experimental part:
as §1

The next assay deals with T3, HIV-2 protease (Human immunodeficiency virus type 2 subtype A, UniProt P04584).
T3 construct: purified HIV protease was incubated with synthetic peptide
T3 sequence (P04584 514-612 limits assumed): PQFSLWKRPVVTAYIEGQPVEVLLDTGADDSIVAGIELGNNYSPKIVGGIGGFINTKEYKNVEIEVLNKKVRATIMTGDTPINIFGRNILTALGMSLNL
As to the kind of experiment: HIV-specific protease enzyme test (RP-HPLC), HIV-2. In kind it is biochemical. As to conditions: compounds of general formula (VIa). As for the experimental part: as §1

The term IC50 denotes the concentration that gives 50% inhibition. As to `CCOP(=O)(OCC)C1CCCN1C[C@H](O)[C@H](CC1CCCCC1)NC(=O)OC(C)(C)C` (mixture of isomers) [5 (non-polar), Diethyl 1-{(2S, 3S)-3-[(tert-butoxycarbonyl)-amino]-4-cyclohexyl-2-hydroxy-butyl}-(2R and 2S)-2 (pyrrolidinyl)-phosphonate], the IC50 at HIV protease was 1000 nM.

On to `CCOP(=O)(OCC)C1CCCN1C[C@H](O)[C@H](CC1CCCCC1)NC(=O)OC(C)(C)C` (mixture of isomers) [5 (polar), Diethyl 1-{(2S, 3S)-3-[(tert-butoxycarbonyl)-amino]-4-cyclohexyl-2-hydroxy-butyl}-(2R and 2S)-2 (pyrrolidinyl)-phosphonate], for which half-maximal inhibition against HIV protease (IC50) was put at 100 nM.

As for `O=[N+]([O-])c1ccc(OCC2CO2)cc1` (stereo not drawn) [EPNP, 1,2-epoxy-3-(4-nitrophenoxy)propane], at HIV-I protease, the IC50 was 450000 nM.

Regarding `CC(C)[C@H](NC(=O)[C@H](Cc1ccccc1)NC(=O)CC(C)(C)C)C(=O)N[C@@H](Cc1ccccc1)C1CO1` (stereo partly drawn) [Example 46], the IC50 at HIV-1 protease was determined as 5 nM; on HIV-2 protease, 10 nM.

On HIV protease, “Diethyl 1-{(3S, 4S)-4-[(2S)-3-(tert-butylsulphonyl)-2-(1-naphthylmethyl)propanoyl]valinylamino]-5-cyclohexyl-3-hydroxy-pentanoyl}-(2R or 2S)-2-(pyrrolidinyl)phosphonate [26 (polar)]” gave an IC50 of 100 nM.
